Reference: patent US20220079995A1 (priority 2018, published 2022)

Key:
CSGALNACT1 mRNA = format: cell-based, human; details: ascorbic acid alone; 1 week; GAPDH internal standard; average ± SEM
ANGPT1 mRNA = format: cell-based, human; details: ascorbic acid alone; 1 week; GAPDH internal standard; average ± SEM
IGF1 mRNA = format: cell-based, human; details: ascorbic acid alone; 1 week; GAPDH internal standard; average ± SEM
[1] = tested on: human nucleus pulposus cells; format: cell-based; details: ascorbic acid alone (170 μM in medium), culture 2 weeks; average ± SEM; control 4.33 ± 0.38

O=C1O[C@H]([C@@H](O)CO)C(O)=C1O [Ascorbic Acid, ascorbic acid]
Ratio to Expression Level of CSGALNACT1 mRNA in Control Taken as 1 (CSGALNACT1 mRNA): 2.25 ± 0.55
Ratio to Expression Level of ANGPT1 mRNA in Control Taken as 1 (ANGPT1 mRNA): 3.80 ± 0.91
Ratio to Expression Level of IGF1 mRNA in Control Taken as 1 (IGF1 mRNA): 8.92 ± 3.30
The Ratio of GAG to DNA [1]: 5.88 ± 0.73
